Numbered stars: 1 amine (or outer) side, 2 acyl side, 3 side chain; on linkers, the order of the positions; unused ones are H or OH. Bridge positions count the residues as written; N and C are the ends. Square brackets hold non-standard residues; d marks the D form. Peptide text beside a SMILES is read from it. * marks the point of attachment. hPhe(3-Cl-4-CF3) = N[C@@H](CCc1ccc(C(F)(F)F)c(Cl)c1)C(=O)O; hPhe(3-F,4-CF3) = N[C@@H](CCc1ccc(C(F)(F)F)c(F)c1)C(=O)O; NMePhe(4-CF3) = CN[C@@H](Cc1ccc(C(F)(F)F)cc1)C(=O)O; NMeAla(4-thiazolyl) = CN[C@@H](Cc1cscn1)C(=O)O; NMePhe(3-CN) = CN[C@@H](Cc1cccc(C#N)c1)C(=O)O; NMeAbu(4,4,4-F3) = CN[C@@H](CC(F)(F)F)C(=O)O; NMePhe(4-Cl) = CN[C@@H](Cc1ccc(Cl)cc1)C(=O)O; NMePhe(4-Me) = CN[C@@H](Cc1ccc(C)cc1)C(=O)O; NMePhe(2-Cl) = CN[C@@H](Cc1ccccc1Cl)C(=O)O; NMedβ3hAla = C[C@H](CC(=O)[*:2])N(C)[*:1]; NMeAla(cPent) = CN[C@@H](CC1CCCC1)C(=O)O; NMeGly(cPent) = CN[C@H](C(=O)O)C1CCCC1; NMeCha = CN[C@@H](CC1CCCCC1)C(=O)O; NMeChg = CN[C@H](C(=O)O)C1CCCCC1; NMeF = CN[C@@H](Cc1ccccc1)C(=O)O; NMeI = CC[C@H](C)[C@H](NC)C(=O)O; Cha = N[C@@H](CC1CCCCC1)C(=O)O; NMeD = CN[C@@H](CC(=O)O)C(=O)O; CH2CONHtBu = CC(C)(C)NC(=O)C*; NMeL = CN[C@@H](CC(C)C)C(=O)O; NMeV = CN[C@H](C(=O)O)C(C)C; d(β3hA) = C[C@@H](N)CC(=O)O; NMeS = CN[C@@H](CO)C(=O)O; Morpholide = C1CN(*)CCO1; NMeA = CN[C@@H](C)C(=O)O; Piperidide = C1CCN(*)CC1; Pyrrolidide = C1CCN(*)C1; Ac5c = NC1(C(=O)O)CCCC1; Aze = O=C(O)[C@@H]1CCN1; βAla = NCCC(=O)O; Sar = CNCC(=O)O; Propyl = CCC*

In the experiment the test system is Human pancreatic cancer cell line AsPC-1 (G12D mutation Kras). The experiment can be described thus: AsPC-1 cell growth inhibition (AsPC-1 CGI). Type of experiment: cell-based. The conditions noted are these: read-out: AsPC-1 cell growth inhibition, 50% growth inhibitory concentration (IC50 value); 96 hours, CellTiter-Glo, values classified in ranges. (In ATP-based viability assays light output follows the ATP content of the culture.)
Method: Test compounds were serially dilated with dimethyl sulfoxide, and 200 nL was then dispensed to a U-bottom 96-well plate using Labcyte Echo. […] The cell suspension was dispensed to a. plate containing a test compound at 100 μL per well and incubated at 37° C. in a 5% carbon dioxide gas incubator. 96 hours later, 80 μL of CellTiter-Glo (Promega) was added to each well and fluorescence was measured.
`CCCOC[C@H]1C(=O)N(C)CC(=O)N[C@@H](CCc2ccc(C(F)(F)F)c(Cl)c2)C(=O)N2CCC[C@H]2C(=O)NC2(CCCC2)C(=O)N(C)[C@@H](C2CCCC2)C(=O)N(C)[C@H](C(=O)N2CCOCC2)CC(=O)N(C)[C@@H](CC(C)C)C(=O)N[C@@H]([C@@H](C)CC)C(=O)N(C)[C@@H](C)C(=O)N2CC[C@H]2C(=O)N1C` [Compound 974] ([NMeL]I[NMeA][Aze][NMeS](Propyl)[Sar][hPhe(3-Cl-4-CF3)]P[Ac5c][NMeGly(cPent)][NMeD]-Morpholide; lactam N-11): the IC50 is no more than 20 nM.
The same measure for `CC[C@H](C)[C@@H]1NC(=O)[C@H](CC(C)C)N(C)C(=O)C[C@@H](C)NC(=O)[C@H](C(C)C)N(C)C(=O)C2(CCCC2)NC(=O)[C@@H]2CCCN2C(=O)[C@H](CCc2ccc(C(F)(F)F)c(Cl)c2)NC(=O)CN(C)C(=O)[C@H](Cc2cccc(C#N)c2)N(C)C(=O)CN(C)C(=O)CN(C)C1=O` [Compound 975] (cyclo([Ac5c][NMeV][d(β3hA)][NMeL]I[Sar][Sar][NMePhe(3-CN)][Sar][hPhe(3-Cl-4-CF3)]P)): greater than 500 nM; for `CC[C@H](C)[C@@H]1NC(=O)[C@H](CC(C)C)N(C)C(=O)CCNC(=O)[C@H](C(C)C)N(C)C(=O)C2(CCCC2)NC(=O)[C@@H]2CCCN2C(=O)[C@H](CCc2ccc(C(F)(F)F)c(Cl)c2)NC(=O)CN(C)C(=O)[C@H](CC2CCCCC2)N(C)C(=O)CN(C)C(=O)CN(C)C1=O` [Compound 979] (cyclo([Ac5c][NMeV][βAla][NMeL]I[Sar][Sar][NMeCha][Sar][hPhe(3-Cl-4-CF3)]P)): greater than 500 nM; for `CC[C@H](C)[C@@H]1NC(=O)[C@H](CC(F)(F)F)N(C)C(=O)C[C@@H](C(=O)N2CCOCC2)N(C)C(=O)[C@H](C2CCCCC2)N(C)C(=O)C2(CCCC2)NC(=O)[C@@H]2CCCN2C(=O)[C@H](CCc2ccc(C(F)(F)F)c(Cl)c2)NC(=O)CN(C)C(=O)[C@H](Cc2ccc(C(F)(F)F)cc2)N(C)C(=O)CN(C)C(=O)CN(C)C1=O` [Compound 981] ([NMeAbu(4,4,4-F3)]I[Sar][Sar][NMePhe(4-CF3)][Sar][hPhe(3-Cl-4-CF3)]P[Ac5c][NMeChg][NMeD]-Morpholide; lactam N-11): no more than 20 nM.
The same measure for `CC[C@H](C)[C@@H]1NC(=O)[C@H](CC(C)C)N(C)C(=O)C[C@@H](C(=O)N(C)C)N(C)C(=O)[C@H]([C@@H](C)CC)N(C)C(=O)[C@H](C(C)C)NC(=O)[C@H](Cc2cscn2)N(C)C(=O)[C@H](CCc2ccc(C(F)(F)F)c(Cl)c2)NC(=O)CN(C)C(=O)[C@H](Cc2ccc(C)cc2)N(C)C(=O)[C@@H]2CCN2C(=O)[C@H](C)N(C)C1=O` [Compound 982] ([NMeL]I[NMeA][Aze][NMePhe(4-Me)][Sar][hPhe(3-Cl-4-CF3)][NMeAla(4-thiazolyl)]V[NMeI][NMeD]-NMe2; lactam N-11): greater than 500 nM; for `CC(C)C[C@H]1C(=O)N[C@@H](CC2CCCCC2)C(=O)N(C)CC(=O)N(C)CC(=O)N(C)[C@@H](CC2CCCCC2)C(=O)N(C)CC(=O)N[C@@H](CCc2ccc(C(F)(F)F)c(Cl)c2)C(=O)N2CCC[C@H]2C(=O)NC2(CCCC2)C(=O)N(C)[C@@H](C(C)C)C(=O)N(C)[C@H](C(=O)N2CCCCC2)CC(=O)N1C` [Compound 986] ([NMeL][Cha][Sar][Sar][NMeCha][Sar][hPhe(3-Cl-4-CF3)]P[Ac5c][NMeV][NMeD]-Piperidide; lactam N-11): greater than 500 nM; for `CCCOC[C@H]1C(=O)N(C)CC(=O)N[C@@H](CCc2ccc(C(F)(F)F)c(F)c2)C(=O)N2CCC[C@H]2C(=O)NC2(CCCC2)C(=O)N(C)[C@@H](C2CCCC2)C(=O)N(C)[C@H](C(=O)N2CCCC2)CC(=O)N(C)[C@@H](CC(C)C)C(=O)N[C@@H]([C@@H](C)CC)C(=O)N(C)[C@@H](C)C(=O)N2CC[C@H]2C(=O)N1C` [Compound 987] ([NMeL]I[NMeA][Aze][NMeS](Propyl)[Sar][hPhe(3-F,4-CF3)]P[Ac5c][NMeGly(cPent)][NMeD]-Pyrrolidide; lactam N-11): no more than 20 nM.
Take `CC[C@H](C)[C@@H]1NC(=O)[C@H](CC(C)C)N(C)C(=O)C[C@@H](C)N(C)C(=O)[C@H](CC2CCCC2)N(C)C(=O)C2(CCCC2)NC(=O)[C@@H]2CCCN2C(=O)[C@H](CCc2ccc(C(F)(F)F)c(Cl)c2)NC(=O)CN(C)C(=O)[C@H](CC2CCCCC2)N(C)C(=O)CN(C)C(=O)CN(C)C1=O` [Compound 991] (cyclo([Ac5c][NMeAla(cPent)][NMedβ3hAla][NMeL]I[Sar][Sar][NMeCha][Sar][hPhe(3-Cl-4-CF3)]P)): the IC50 was greater than 500 nM.
As for `CC[C@H](C)[C@@H]1NC(=O)[C@H](CC(C)C)N(C)C(=O)C[C@@H](C(=O)N(C)C)N(C)C(=O)[C@H](C2CCCC2)N(C)C(=O)[C@H](C)NC(=O)[C@H](C)N(C)C(=O)[C@H](CCc2ccc(C(F)(F)F)c(Cl)c2)NC(=O)CN(C)C(=O)[C@H](CC2CCCCC2)N(C)C(=O)[C@@H]2CCN2C(=O)[C@H](C)N(C)C1=O` [Compound 993] ([NMeL]I[NMeA][Aze][NMeCha][Sar][hPhe(3-Cl-4-CF3)][NMeA]A[NMeGly(cPent)][NMeD]-NMe2; lactam N-11), the IC50 was greater than 500 nM.
The same measure for `CC[C@H](C)[C@@H]1NC(=O)[C@H](C)N(C)C(=O)C[C@@H](C)NC(=O)[C@H](C(C)C)N(C)C(=O)[C@H](Cc2ccccc2)N(C)C(=O)[C@H](CC(C)C)N(C)C(=O)[C@H](CCc2ccc(C(F)(F)F)c(Cl)c2)NC(=O)CN(C)C(=O)[C@H](Cc2ccc(Cl)cc2)N(C)C(=O)[C@@H]2CCN2C(=O)CN(C)C1=O` [Compound 994] (cyclo([Aze][NMePhe(4-Cl)][Sar][hPhe(3-Cl-4-CF3)][NMeL][NMeF][NMeV][d(β3hA)][NMeA]I[Sar])): greater than 500 nM; for `CC[C@H](C)[C@@H]1NC(=O)[C@H](CC(C)C)N(C)C(=O)C[C@@H](C(=O)N2CCCCC2)N(C)C(=O)[C@H](C(C)C)N(C)C(=O)C2(CCCC2)NC(=O)[C@@H]2CCCN2C(=O)[C@H](CCc2ccc(C(F)(F)F)c(Cl)c2)NC(=O)CN(C)C(=O)[C@H](CC2CCCCC2)N(C)C(=O)[C@@H]2CCN2C(=O)[C@H](COCC(=O)NC(C)(C)C)N(C)C1=O` [Compound 998] ([NMeL]I[NMeS](CH2CONHtBu)[Aze][NMeCha][Sar][hPhe(3-Cl-4-CF3)]P[Ac5c][NMeV][NMeD]-Piperidide; lactam N-11): greater than 500 nM.
Next, `CC[C@H](C)[C@@H]1NC(=O)CCNC(=O)[C@H](Cc2ccccc2)N(C)C(=O)[C@H](C2CCCCC2)N(C)C(=O)C2(CCCC2)NC(=O)[C@@H]2CCCN2C(=O)[C@H](CCc2ccc(C(F)(F)F)c(Cl)c2)NC(=O)CN(C)C(=O)[C@H](CC2CCCCC2)N(C)C(=O)CN(C)C(=O)CN(C)C1=O` [Compound 1007] (cyclo([Ac5c][NMeChg][NMeF][βAla]I[Sar][Sar][NMeCha][Sar][hPhe(3-Cl-4-CF3)]P)): greater than 500 nM; `CC[C@H](C)[C@@H]1NC(=O)[C@H](CC(C)C)N(C)C(=O)C[C@@H](C(=O)N(C)C)N(C)C(=O)[C@H](C2CCCC2)N(C)C(=O)C2(CCCC2)NC(=O)[C@H](Cc2ccccc2Cl)N(C)C(=O)[C@H](CCc2ccc(C(F)(F)F)c(Cl)c2)NC(=O)CN(C)C(=O)[C@H](CC2CCCCC2)N(C)C(=O)[C@@H]2CCN2C(=O)[C@H](C)N(C)C1=O` [Compound 1009] ([NMeL]I[NMeA][Aze][NMeCha][Sar][hPhe(3-Cl-4-CF3)][NMePhe(2-Cl)][Ac5c][NMeGly(cPent)][NMeD]-NMe2; lactam N-11): greater than 500 nM.

Values taken from patent US20240148821A1, “PHARMACEUTICAL USE OF CYCLIC PEPTIDE COMPOUND” (CHUGAI SEIYAKU KABUSHIKI KAISHA, priority 2021, published 2024).
